Data on one compound can be found in PubChem BioAssay (NCI).

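Step 1: Grow cells in 96-well plates. Step 2: Expose to compound for 48 hours at 5 concentrations. Step 3: Interpolate endpoints linearly; if unreached, use highest concentration. The concentration for full growth arrest is given as TGI.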 Where only a bound is given, the exact number is not on record here.

Some test systems named below: HL-60(TB) leukemia; SNB-75 CNS; HS 578T breast; SNB-78 CNS; A549 NSCLC; DU-145 prostate; KM12 colon; BT-549 breast; HCC-2998 colon; MCF7 breast.
What all share (assay): NCI tumour cell line growth inhibition, 48 h

On to `CN(C)c1nc(N(C)C)nc(N(C)C)n1`, for which the TGI with HL-60(TB) leukemia was more than 148 µM; in the assay with SNB-75 CNS, 149 µM; in the assay on HS 578T breast, more than 150 µM; with SNB-78 CNS it was more than 150 µM; with A549 NSCLC, more than 150 µM; in the assay with DU-145 prostate, more than 150 µM. Moreover, the TGI in the assay on KM12 colon is more than 150 µM; with BT-549 breast, more than 150 µM; with HCC-2998 colon, more than 123 µM; with MCF7 breast, more than 150 µM.
